Data published in patent publication US4288438A, “Nitrogen-containing heterocyclic ring derivatives and analgesic and anti-inflammatory compositions and methods employing them” (priority 1976, dated 1981).

What was measured:
writhings (acetic acid) = test: Whittle's method: acetic acid writhing, oral (Table 2); format: in vivo, Male ICR-Mice; settings: mouse, 0.6% acetic acid i.p.
Protocol: (§1) Male ICR-Mice (weighting 25-35 g.), one group being 12 mice, fasted overnight were used in this test. The sample was orally administered, and 20 minutes after, 5 ml./Kg. of 0.4% Evance blue was injected by intravenously and further 10 minutes after, 10 ml./Kg. of 0.6% acetic acid was injected by intraperitoneally. The number of writhings after 20 minutes since the administration of acetic acid was recorded and 10 minutes after since then, the mice were killed by dislocation of the neck, the dye leaked in the abdominal cavity was washed out with 5 ml. of 0.9% saline to make the total amount 10 ml., and thereafter furs, blood corpuscles, etc., intermingled were removed by centrifugal separation at 3,000 r.p.m. for 5 minutes. Furthermore, for preventing turbidity caused by protein, 0.1 ml. of an aqueous 0.1 normal sodium hydroxide was added and then the absorbance at 590 nm was measured. The inhibition ratio of the sample administered rat groups to control groups was calculated.
(§2) In addition, the test samples used in the aforesaid tests (a), (b), (c) and (d) were prepared by suspending the test compounds, in the cases of using the compounds of Test Nos. 1,2,4,5,6,8,9,10,11, 16-21 and p henylbutazone,in an aqueous 0.5% methyl cellulose solution, dissolving the test compounds, in the cases of using the compounds of Test Nos. 13,14 and 15, in aqueous solution of 0.5% methyl cellulose, and further dissolving the test compounds, in the cases of using the compounds of Test Nos. 3,7 and 12 and aminopyrine, in distilled water.

[1] = system: Permeability (dye leaked in the abdominal cavity); test: Whittle's method: permeability, dye leaked in the abdominal cavity, oral (Table 2); format: in vivo, Male ICR-Mice
Protocol: (b) Whittle's method (British J. Pharmacol.; 22, 246-253 (1964))
as §1, §2

[2] = system: Carrageenin-induced edema; test: Carrageenin-induced edema, hind paw, oral (Table 1); format: in vivo, Male Wister rats; settings: rat, 1 hour before Carrageenin, edema weight after 3 hours; for inhibition in vivo at 50 mg/kg: po; for inhibition in vivo at 50 mg/kg / Inhibition (%) p.o. 50mg/kg: p.o. 50 mg/kg
Protocol: (a) Carrageenin-induced edema
Male Wister rats (weighting 130-170 g.), one group being 6 rats, fasted overnight were used. According to […] [Proc. Soc. […] After 3 hours, each rat was sacrificed by chloroform and the hind paw was cut and weighed immediately. By using the value obtained by subtracting the weight of the untreated hind paw from the weight of the hind paw having injected therein the Carrageenin as the weight of edema, the inhibitory ratio of the sample administered rat groups to control groups was calculated. The sample was orally administered one hour before the injection of Carrageenin.
as §2

[3] = system: Hyperthemia caused by Brewer's yeast; test: Antipyretic effect, Brewer's yeast hyperthermia, rectal temperature (Table 3); format: in vivo, Male Wister rats; settings: rat, 50mg/kg p.o., in °C (unit assumed); for Rectal temperature (mean ± SE) 1 hour / Rectal temperature (mean ± SE) 2 hours / Rectal temperature (mean ± SE) 4 hours: * p<0.05 vs before for Test Nos. 1, 2 and Aminopyrine; for Rectal temperature (mean ± SE) 6 hours: * p<0.05 vs before for Test No. 2 and Aminopyrine; for Rectal temperature (mean ± SE) before: before administration
Protocol: Male Wister rats (weighting 130-150 g.), one group being 5 rats, were used. Hyperthemia was caused by subcutaneous injection of 2 ml./rat of 20% Brewer's yeast suspension. 18 hours later, the rats showing a rise in temperature exceeding 1° C. were selected and allocated into groups each consisting of 5 rats. The sample was orally administered and then the body temperature was measured with the passage of time for 6 hours since then. In addition, the body temperature was measured by measuring the temperature in the rectum by means of a thermister thermometer.
as §2

[4] = Acute toxicity, mouse (Table 4); format: in vivo
[5] = Acute toxicity, rat (Table 4); format: in vivo, Male Wister rats; settings: 500 mg/Kg oral, 7 days, deaths/animals
Protocol: Male Wister rats (weighting 130-170 g.), one group being 5 rats, fasted overnight were used in this test.
as §2

[6] = mouse, 25 mg/kg p.o., Evance blue i.v., acetic acid i.p., 590 nm
[7] = mouse, 50 mg/kg p.o., Evance blue i.v., acetic acid i.p., 590 nm
[8] = deaths/animals, method given for rats only (500 mg/Kg oral, 7 days)

Row | SMILES | Inhibition (%) Writhing S 25mg/kg p.o. (writhings (acetic acid)) | Inhibition (%) Writhing S 50mg/kg p.o. (writhings (acetic acid)) | Inhibition (%) Permeability 25mg/kg p.o. [1, 6] | Inhibition (%) Permeability 50mg/kg p.o. [1, 7] | inhibition in vivo at 50 mg/kg [2] | Inhibition (%) p.o. 100mg/kg [2] | Inhibition (%) p.o. 50mg/kg [2] | also measured
1 | CN1CCn2c1cc(-c1ccccc1)cc2=O [Test No. 5] | 41.2% | 67.4% | 20.0% | 42.1% | – | – | – | –
2 | CCCCC1C(=O)N(c2ccccc2)N(c2ccccc2)C1=O [phenylbutazone, reference compound] | – | – | – | – | 44.5% | 51.2% | – | –
3 | O=c1cc(-c2ccccc2)cc2n1CCN2 [Test No. 2] | 28.9% | 52.6% | 26.9% | 51.1% | – | 76.1% | 71.6% | Rectal temperature (mean ± SE) 1 hour [3]: 37.80 ± 0.10; Rectal temperature (mean ± SE) 2 hours [3]: 36.74 ± 0.24; Rectal temperature (mean ± SE) 4 hours [3]: 36.77 ± 0.39; Rectal temperature (mean ± SE) 6 hours [3]: 37.51 ± 0.57; Rectal temperature (mean ± SE) before [3]: 38.89 ± 0.21; Number of deaths Mouse ([4]; in vivo): 0/5
4 | CN1CCn2c1ccc(-c1ccccc1)c2=O [Test No. 7, 1-methyl-5-oxo-6-phenyl-1,2,3,5-tetrahydroimidazo[1,2-a]pyridine] | 59.1% | 95.3% | 49.3% | 63.8% | 75% | 79.5% | – | –
5 | CN1CCCn2c1cc(-c1ccccc1)cc2=O [Test No. 1] | 41.8% | 87.6% | 18.0% | 44.4% | – | – | 71.5% | Rectal temperature (mean ± SE) 1 hour [3]: 37.07 ± 0.15; Rectal temperature (mean ± SE) 2 hours [3]: 36.17 ± 0.32; Rectal temperature (mean ± SE) 4 hours [3]: 36.12 ± 0.17; Rectal temperature (mean ± SE) 6 hours [3]: 38.52 ± 0.47; Rectal temperature (mean ± SE) before [3]: 38.82 ± 0.05
6 | O=c1cc(-c2ccccc2)cc2n1CCCN2 [Test No. 6] | 69.0% | 91.5% | 28.4% | 59.0% | – | 80.5% | 72.7% | –
7 | O=c1cc(-c2ccccc2)cc2sccn12 [Test No. 21] | – | – | – | – | – | – | 46.9% | –
8 | Cc1c(N(C)C)c(=O)n(-c2ccccc2)n1C [Aminopyrine, reference compound] | 29.6% | 58.1% | 28.5% | 41.7% | – | – | – | Rectal temperature (mean ± SE) 1 hour [3]: 37.92 ± 0.09; Rectal temperature (mean ± SE) 2 hours [3]: 37.49 ± 0.10; Rectal temperature (mean ± SE) 4 hours [3]: 37.39 ± 0.07; Rectal temperature (mean ± SE) 6 hours [3]: 37.76 ± 0.18; Rectal temperature (mean ± SE) before [3]: 39.24 ± 0.14
9 | Cc1cc(=O)n2c(c1-c1ccccc1)N(C)CC2 [Test No. 18, 1,7-dimethyl-5-oxo-8-phenyl-1,2,3,5-tetrahydroimidazo[1,2-a]pyridine] | – | – | – | – | – | 41.0% | – | –
10 | CN1CCn2c1cc1c(c2=O)CCCC1 [Test No. 14, 1-methyl-5-oxo-1,2,3,5,6,7,8,9-octahydroimidazo[1,2-b]isoquinoline] | – | – | – | – | 64.1% | – | – | –
11 | CN1CCCn2c1cc1c(c2=O)CCCC1 [Test No. 15, 1-methyl-6-oxo-1,2,3,4,6,7,8,9,10-nonahydropyrimido[1,2-b]isoquinoline] | – | – | – | – | 52.4% | – | – | –
12 | Cc1cc2n(c(=O)c1-c1ccccc1)CCN2C [Test No. 16, 1,7-dimethyl-5-oxo-6-phenyl-1,2,3,5-tetrahydroimidazo[1,2-a]pyridine] | – | – | – | – | 47.7% | – | – | –
13 | O=c1cc(-c2ccccc2)cc2n1CCS2 [Test No. 10] | – | – | – | – | – | – | – | Number of deaths Rat [5]: 0/5; Number of deaths Mouse [4, 8]: 0/5
14 | Cc1cc2n(c(=O)c1)CCN2C [Test No. 3, 1,7-dimethyl-5-oxo-1,2,3,5-tetrahydroimidazo[1,2-a]pyridine] | 52.1% | 75.3% | 18.5% | 46.2% | 52.3% | 51.5% | – | Number of deaths Mouse [4, 8]: 1/5
15 | Cc1c(-c2ccccc2)cc2n(c1=O)CCCN2C [Test No. 17, 1,7-dimethyl-6-oxo-8-phenyl-1,2,3,4,6-pentahydropyrido[1,2-a]pyrimidine] | – | – | – | – | 45.7% | – | – | –
16 | Cc1cc2n(c(=O)c1)CCCN2C [Test No. 8] | 35.6% | 66.4% | – | – | – | – | 53.3% | Inhibition (%) Permeability 25mg/kg p.o. ([1]; 25 mg/kg): 32.4%; Inhibition (%) Permeability 50mg/kg p.o. ([1]; 50 mg/kg): 25.8%
17 | CN1CCCn2c1cc(-c1ccc(Cl)cc1)cc2=O [Test No. 11] | – | – | – | – | – | – | 47.1% | –
18 | Cc1cc(=O)n2c(c1-c1ccccc1)NCCC2 [Test No. 19] | – | – | – | – | – | 46.7% | – | –
19 | O=c1cc(-c2ccccc2)cc2n1CC[S+]2[O-] (centres unmarked) [Test No. 4] | – | – | – | – | – | – | – | Number of deaths Rat [5]: 2/5; Number of deaths Mouse [4, 8]: 1/5
20 | CC1CNc2cc(-c3ccccc3)cc(=O)n21 (centres unmarked) [Test No. 20] | – | – | – | – | – | – | 72.2% | –
21 | CCN1CCn2c1cc(-c1ccccc1)cc2=O [Test No. 9] | – | – | – | – | – | – | – | Number of deaths Rat [5]: 0/5; Number of deaths Mouse [4, 8]: 0/5
22 | CN1CCn2c1cc1c(c2=O)CCC1 [Test No. 13, 1-methyl-5-oxo-1,2,3,6,7,8-hexahydroimidazo[1,2-b]1H-2-pyrindine] | – | – | – | – | – | – | 57.1% | –
